Test results: US20170304195A1, “PHARMACEUTICAL FORMULATIONS FOR THE ORAL DELIVERY OF PEPTIDE OR PROTEIN DRUGS” (Cyprumed GmbH, priority 2014, published 2017)
Structures can show the parent of a compound that is named as a salt.

How the values were obtained:
[1] = In vitro compatibility of absorption enhancers with zinc sulfate (Example 16); type: physicochemical; details: absorption enhancer 10 mg/ml with desmopressin acetate and ZnSO4 5 mg/ml, in 2 ml aqua purificata, visual examination
Protocol: Solid dry powder mixtures of desmopressin acetate, zinc sulfate and different absorption enhancers were prepared and dissolved in 2 ml aqua purificata.

[2] = pH of dissolved solid powder mixtures (Example 17); type: physicochemical; details: lactose 50 mg, no buffer
[3] = Compatibility of absorption enhancers with Cu2+ and Cu+ salts (dissolution in aqueous medium); type: physicochemical; details: absorption enhancer 10 mg/ml
From the text: Various absorption enhancers were screened regarding their compatibility with the trace element copper in the two main oxidation states as Cu^2+ and Cu^+.

[4] = Plasma liraglutide levels after mid-jejunum administration (Example 6, FIG. 1); type: in vivo, Sprague Dawley rats
Protocol: FIG. 1: Plasma liraglutide levels after intestinal (mid-jejunum) administration of different liraglutide formulations to rats (see Example 6).
Administration into Mid-Jejunum in Rats:
The wound margins were released from the base.
Dosing was performed slowly.
Correctness of the application was checked.
2.4 mg/kg of the polypeptide liraglutide were dosed into the mid-jejunum of anesthetized Sprague Dawley rats in the presence of the zwitter-ionic absorption enhancer lauroyl carnitine chloride (“LCC”) (20 mg/ml) with and without the addition of (i) the trace element CuSO4 (1 mg/ml) and the reducing agent sodium ascorbate (40 mg/ml) or (ii) the trace element ZnSO4 (1 mg/ml) and the reducing agent glutathione (40 mg/ml). All formulations further comprised Na2HPO4 to result in a neutral pH between 7 to 8.

[5] = background statement, unformulated drug; cited from earlier work
[6] = Octreotide pharmacokinetics after s.c. or ileum administration (Example 9); type: in vivo, Sprague Dawley rats; details: for AUC(0-t): read-out: AUC(0-90) (converted)
Protocol: TRIS buffer was used to generate a neutral pH.
The octreotide plasma concentrations were determined using a commercial octreotide kit (AB Biolabs, USA, cat. number CEK 0110-01).

[7] = Vancomycin pharmacokinetics after i.v. or ileum administration (Example 5); type: in vivo, Sprague Dawley rats; details: for AUC(0-t) / Cmax: anesthetized rats
Protocol: The vancomycin plasma concentrations were determined on biochemical autoanalyser Hitachi 912 using commercial vancomycin kit VANC2 (Roche Diagnostics GmbH, Germany). The absolute bioavailability (F) was calculated using equation F (%)=(AUCileum/AUCi.v.)×(Dosei.v./Doseileum)×100.

[8] = Human growth hormone formulation, pharmacokinetics after s.c. or ileum administration (Example 13); type: in vivo, Sprague Dawley rats
Protocol: The human growth hormone plasma concentrations were determined using commercial growth hormone sensitive human ELISA kit (Biovendor, EU, cat. number RMEE022).

[9] = CuSO4 1 mg/ml, sodium ascorbate 10 mg/ml
[10] = Sprague Dawley, rat, plasma, other: into distal small intestine (ileum), octreotide 0.92 mg/kg ileum (n = 8), lauroyl carnitine chloride 30 mg/ml, CuSO4 1 mg/ml, sodium ascorbate 30 mg/ml, TRIS 22.5 mg/ml
[11] = Sprague Dawley, rat, plasma, sc, octreotide 1 mg/kg s.c., anesthetized rats (n = 3)
[12] = Cu(I)Cl 1 mg/ml, sodium ascorbate 10 mg/ml
[13] = copper (I) acetate 1 mg/ml, sodium ascorbate 10 mg/ml
[14] = Sprague Dawley, rat, plasma, iv, vancomycin 5 mg/kg i.v.
[15] = Sprague Dawley, rat, plasma, vancomycin 20 mg/kg into ileum, lauroyl carnitine 50 mg/ml, CuSO4 1 mg/ml, sodium ascorbate 250 mg/ml
[16] = s.c. 1 ml/kg, 0.2 mg/ml human growth hormone, anaesthetized rats

C[C@H](CCC(=O)O)[C@H]1CC[C@H]2[C@@H]3[C@H](O)C[C@@H]4C[C@H](O)CC[C@]4(C)[C@H]3C[C@H](O)[C@]12C [Cholic acid]
Dissolution in aqueous medium (2 ml) [1]: Precipitation

NC(=O)CC[C@@H]1NC(=O)[C@H](Cc2ccccc2)NC(=O)[C@H](Cc2ccc(O)cc2)NC(=O)CCSSC[C@@H](C(=O)N2CCC[C@H]2C(=O)N[C@H](CCCN=C(N)N)C(=O)NCC(N)=O)NC(=O)[C@H](CC(N)=O)NC1=O [Desmopressin, Desmopressin acetate]
Dissolution pH in 5 ml Aqua purificata ([2]; CuSO4 10 mg, citric acid 10 mg): 2.6 | Dissolution pH in 5 ml Aqua purificata ([2]; CuSO4 10 mg, no absorption enhancer): 4.7 | Dissolution pH in 5 ml Aqua purificata ([2]; ZnSO4 10 mg, citric acid 10 mg): 2.7 | Dissolution pH in 5 ml Aqua purificata ([2]; ZnSO4 10 mg, no absorption enhancer): 5.5

O=C(O)CN(CCN(CC(=O)O)CC(=O)O)CC(=O)O [EDTA, ethylenediaminetetraacetic acid]
Dissolution in aqueous medium (2 ml) [1]: Clear solution | Dissolution in aqueous medium (2 ml) [3, 9]: Clear solution

CCCCCCCCCCCC(=O)OC(CC(=O)O)C[N+](C)(C)C.[Cl-] (stereo not drawn) [Lauroyl carnitine HCl]
Dissolution in aqueous medium (2 ml) [1]: Clear solution

CCCCCCCCCCCC(=O)OC(CC(=O)O)C[N+](C)(C)C.[Cl-] (stereo not drawn) [Lauroyl carnitine]
Dissolution in aqueous medium (2 ml) ([3]; CuSO4 1 mg/ml, glutathione 10 mg/ml): Clear solution | Dissolution in aqueous medium (2 ml) [3, 9]: Clear solution

CCCCCCCCCCCCCCCC(=O)N[C@@H](CCC(=O)NCCCC[C@H](NC(=O)[C@H](C)NC(=O)[C@H](C)NC(=O)[C@H](CCC(N)=O)NC(=O)CNC(=O)[C@H](CCC(=O)O)NC(=O)[C@H](CC(C)C)NC(=O)[C@H](Cc1ccc(O)cc1)NC(=O)[C@H](CO)NC(=O)[C@H](CO)NC(=O)[C@@H](NC(=O)[C@H](CC(=O)O)NC(=O)[C@H](CO)NC(=O)[C@@H](NC(=O)[C@H](Cc1ccccc1)NC(=O)[C@@H](NC(=O)CNC(=O)[C@H](CCC(=O)O)NC(=O)[C@H](C)NC(=O)[C@@H](N)Cc1cnc[nH]1)[C@@H](C)O)[C@@H](C)O)C(C)C)C(=O)N[C@@H](CCC(=O)O)C(=O)N[C@@H](Cc1ccccc1)C(=O)N[C@H](C(=O)N[C@@H](C)C(=O)N[C@@H](Cc1c[nH]c2ccccc12)C(=O)N[C@@H](CC(C)C)C(=O)N[C@H](C(=O)N[C@@H](CCCNC(=N)N)C(=O)NCC(=O)N[C@@H](CCCNC(=N)N)C(=O)NCC(=O)O)C(C)C)[C@@H](C)CC)C(=O)O [Liraglutide, liraglutide]
intestinal absorption of liraglutide (plasma levels, FIG. 1), in words ([4]; LCC 20 mg/ml + CuSO4 1 mg/ml + sodium ascorbate 40 mg/ml, compared with LCC alone): substantially increased the intestinal absorption | liraglutide absorption (plasma levels, FIG. 1), in words ([4]; LCC 20 mg/ml + ZnSO4 1 mg/ml + glutathione 40 mg/ml, compared with LCC alone and with the Cu2+ composition): improved liraglutide absorption albeit less pronounced

C[C@@H](O)[C@@H]1NC(=O)[C@H](CCCCN)NC(=O)[C@@H](Cc2c[nH]c3ccccc23)NC(=O)[C@H](Cc2ccccc2)NC(=O)[C@@H](NC(=O)[C@H](N)Cc2ccccc2)CSSC[C@@H](C(=O)N[C@H](CO)[C@@H](C)O)NC1=O [Octreotide]
oral bioavailability [5]: less than 1% | Cmax [6, 10]: 25.8 ± 14.2 ng/mL | AUC(0-t) [6, 10]: 25.1 ng·h/mL | Cmax [6, 11]: 154 ± 29.8 ng/mL | AUC(0-t) [6, 11]: 167 ng·h/mL | F rel ([6]; Sprague Dawley, rat, plasma, octreotide 0.92 mg/kg ileum, lauroyl carnitine chloride 30 mg/ml, CuSO4 1 mg/ml, sodium ascorbate 30 mg/ml, TRIS 22.5 mg/ml, vs s.c.): 16.3 ± 7.8% | F ([6]; octreotide 1 mg/kg s.c. (reference)): 100 ± 18.3% | bioavailability, in words ([6]; octreotide formulation with copper(II) salt, sodium ascorbate, lauroyl carnitine chloride): markedly increased bioavailability

CCCCCCCCCC(=O)[O-].[Na+] [Sodium caprate]
Dissolution in aqueous medium (2 ml) [1]: Precipitation | Dissolution in aqueous medium (2 ml) [3, 12]: Clear solution | Dissolution in aqueous medium (2 ml) [3, 9]: Precipitation | Dissolution in aqueous medium (2 ml) [3, 13]: Clear solution

CCCCCCCC(=O)[O-].[Na+] [Sodium caprylate]
Dissolution in aqueous medium (2 ml) [1]: Precipitation | Dissolution in aqueous medium (2 ml) [3, 12]: Clear solution | Dissolution in aqueous medium (2 ml) [3, 9]: Precipitation | Dissolution in aqueous medium (2 ml) [3, 13]: Clear solution

C[C@H](CCC(=O)[O-])[C@H]1CC[C@H]2[C@@H]3[C@H](O)C[C@@H]4C[C@H](O)CC[C@]4(C)[C@H]3C[C@H](O)[C@]12C.[Na+] [Sodium cholate]
Dissolution in aqueous medium (2 ml) [1]: Precipitation

O=C([O-])CC(O)(CC(=O)[O-])C(=O)[O-].[Na+].[Na+].[Na+] [Sodium citrate]
Dissolution in aqueous medium (2 ml) [3, 9]: Clear solution

CCCCCCCCCCCCOS(=O)(=O)[O-].[Na+] [Sodium dodecyl sulfate]
Dissolution in aqueous medium (2 ml) [1]: Clear solution | Dissolution in aqueous medium (2 ml) [3, 9]: Clear solution

O=C([O-])c1ccccc1O.[Na+] [Sodium salicylate]
Dissolution in aqueous medium (2 ml) [3, 9]: Clear solution

CN[C@H](CC(C)C)C(=O)N[C@H]1C(=O)N[C@@H](CC(N)=O)C(=O)N[C@H]2C(=O)N[C@H]3C(=O)N[C@H](C(=O)N[C@H](C(=O)O)c4cc(O)cc(O)c4-c4cc3ccc4O)[C@H](O)c3ccc(c(Cl)c3)Oc3cc2cc(c3O[C@@H]2O[C@H](CO)[C@@H](O)[C@H](O)[C@H]2O[C@H]2C[C@](C)(N)[C@H](O)[C@H](C)O2)Oc2ccc(cc2Cl)[C@H]1O [Vancomycin, Vancomycin hydrochloride]
oral bioavailability [5]: ~0.1% | AUC(0-t) [7, 14]: 11000 ng·h/mL | Cmax [7, 14]: 8800 ± 300 ng/mL | AUC(0-t) [7, 15]: 3000 ng·h/mL | Cmax [7, 15]: 2400 ± 200 ng/mL | bioavailability ([7]; Sprague Dawley, rat, plasma, vancomycin 20 mg/kg into ileum, lauroyl carnitine 50 mg/ml, CuSO4 1 mg/ml, sodium ascorbate 250 mg/ml, vs i.v., read-out: F (absolute bioavailability)): 8 ± 0.4% | F ([7]; vancomycin 5 mg/kg i.v. (reference)): 100 ± 7% | bioavailability in comparison with published F values after oral administration, in words ([7]; vancomycin formulation with lauroyl carnitine, CuSO4, sodium ascorbate): increased markedly its bioavailability

CCCCCCCCCCCCO[C@@H]1O[C@H](CO)[C@@H](O[C@H]2O[C@H](CO)[C@@H](O)[C@H](O)[C@H]2O)[C@H](O)[C@H]1O [n-Dodecyl-beta-D-maltoside]
Dissolution in aqueous medium (2 ml) [1]: Clear solution | Dissolution in aqueous medium (2 ml) [3, 9]: Clear solution

CCCCCCCCO[C@@H]1O[C@H](CO)[C@@H](O)[C@H](O)[C@H]1O [n-Octyl-beta-D-glucopyranoside]
Dissolution in aqueous medium (2 ml) [1]: Clear solution | Dissolution in aqueous medium (2 ml) [3, 9]: Clear solution

Human growth hormone [hGH]
AUC(0-t) [8, 16]: 7630 ± 471 ng·min/mL | Cmax [8, 16]: 44 ng/mL | Tmax [8, 16]: 30 min | F ([8]; s.c. (reference)): 100 ± 6%

Methyl-beta-cyclodextrin
Dissolution in aqueous medium (2 ml) [3, 9]: Clear solution

Sodium lauroyl sarcosinate
Dissolution in aqueous medium (2 ml) [3, 9]: Precipitation
